Experimental data from the NIST ThermoML archive (doi:10.1016/j.jct.2014.07.017).
Numbers after ± are expanded uncertainties.

Assay: mn = molality of the nth substance listed, in mol/kg
Conditions: 298.15 K, 100 kPa, Liquid, Direct current cell with electrodes

Compound: CCNCC(O)c1cccc(O)c1.Cl (stereo unspecified) [1-(3-hydroxyphenyl)-2-ethylaminoethanol hydrochloride] + O
- electrical conductivity (m1 = 0.01028): 0.03 ± 0.001 S/m
- electrical conductivity (m1 = 0.01115): 0.033 ± 0.001 S/m
- electrical conductivity (m1 = 0.01209): 0.037 ± 0.001 S/m
- electrical conductivity (m1 = 0.01313): 0.041 ± 0.001 S/m
- electrical conductivity (m1 = 0.01425): 0.045 ± 0.001 S/m
- electrical conductivity (m1 = 0.01546): 0.051 ± 0.001 S/m
- electrical conductivity (m1 = 0.01677): 0.056 ± 0.001 S/m
- electrical conductivity (m1 = 0.0182): 0.061 ± 0.001 S/m
- electrical conductivity (m1 = 0.01896): 0.065 ± 0.001 S/m
- electrical conductivity (m1 = 0.01974): 0.068 ± 0.001 S/m
- electrical conductivity (m1 = 0.02057): 0.072 ± 0.001 S/m
- electrical conductivity (m1 = 0.02143): 0.075 ± 0.001 S/m
- electrical conductivity (m1 = 0.02232): 0.078 ± 0.001 S/m
- electrical conductivity (m1 = 0.02325): 0.082 ± 0.001 S/m
- electrical conductivity (m1 = 0.02422): 0.087 ± 0.001 S/m
- electrical conductivity (m1 = 0.02523): 0.09 ± 0.001 S/m
- electrical conductivity (m1 = 0.02628): 0.095 ± 0.001 S/m
- electrical conductivity (m1 = 0.02737): 0.101 ± 0.001 S/m
- electrical conductivity (m1 = 0.02851): 0.105 ± 0.001 S/m
- electrical conductivity (m1 = 0.0297): 0.109 ± 0.001 S/m
- electrical conductivity (m1 = 0.03094): 0.115 ± 0.001 S/m
- electrical conductivity (m1 = 0.03222): 0.12 ± 0.001 S/m
- electrical conductivity (m1 = 0.03357): 0.126 ± 0.001 S/m
- electrical conductivity (m1 = 0.03497): 0.132 ± 0.001 S/m
- electrical conductivity (m1 = 0.03643): 0.138 ± 0.001 S/m
- electrical conductivity (m1 = 0.03795): 0.145 ± 0.002 S/m
- electrical conductivity (m1 = 0.03953): 0.15 ± 0.002 S/m
- electrical conductivity (m1 = 0.04117): 0.155 ± 0.002 S/m
- electrical conductivity (m1 = 0.04289): 0.159 ± 0.002 S/m
- electrical conductivity (m1 = 0.04468): 0.165 ± 0.002 S/m
- electrical conductivity (m1 = 0.04654): 0.171 ± 0.002 S/m
- electrical conductivity (m1 = 0.04848): 0.177 ± 0.002 S/m
- electrical conductivity (m1 = 0.0505): 0.185 ± 0.002 S/m
- electrical conductivity (m1 = 0.0526): 0.191 ± 0.002 S/m
- electrical conductivity (m1 = 0.05479): 0.195 ± 0.002 S/m
- electrical conductivity (m1 = 0.05708): 0.203 ± 0.002 S/m
- electrical conductivity (m1 = 0.05945): 0.208 ± 0.002 S/m
- electrical conductivity (m1 = 0.06193): 0.216 ± 0.002 S/m
- electrical conductivity (m1 = 0.06451): 0.224 ± 0.002 S/m
- electrical conductivity (m1 = 0.0672): 0.232 ± 0.002 S/m
- electrical conductivity (m1 = 0.07): 0.241 ± 0.002 S/m
